One compound from publication PMC7515921, “MFSD7C switches mitochondrial ATP synthesis to thermogenesis in response to heme” (Nature Communications, 2020) can be followed below.

In the test the target is T1, MFSD7C (major facilitator superfamily domain containing 7C; FLVCR2; SLC49A2) (Homo sapiens, UniProt Q9UPI3).
T1 construct: N-terminal domain (NTD), amino acids 1–84
T1 sequence (Q9UPI3 1-84): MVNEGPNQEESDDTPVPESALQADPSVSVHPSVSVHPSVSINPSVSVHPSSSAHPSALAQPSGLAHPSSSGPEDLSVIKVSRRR
The experiment in a line: ITC with purified NTD; also heme absorbance-shift (Soret/Q band) and gel-filtration co-elution. The test is classed as binding.

For the compound `C=CC1=C(C)C2=Cc3c(C=C)c(C)c4[n]3[Fe][n]3c(c(C)c(CCC(=O)O)c3=CC3=NC(=C4)C(C)=C3CCC(=O)O)=CC1=N2` [heme], the equilibrium dissociation constant (Kd) (usually the equilibrium constant for the complex coming apart) was roughly 1000 nM.
